Measured values published in ChEMBL document CHEMBL3885861, “Open TG-GATES”.

Species on record: Rattus norvegicus
Assay: Open TG-GATES - Regimen: Single
Format: toxicity, organism-based, Sprague-Dawley
Parameters: regimen Single, gender Male, age 6 weeks
Details: in vivo, po, 3 mg/kg, route gavage, dose level Low; for APTT / Bas / Eos / Fbg / Hb / Ht / Lym / MCH / MCHC / MCV / Mono / Neu / PT / Plat / RBC / Ret / WBC: tissue Blood; for KIDNEY_L / KIDNEY_R / KIDNEY_TOTAL: tissue Kidney; for LIVER: tissue Liver; for A/G / ALP / ALT / AST / BUN / CRE / Ca / Cl / DBIL / GLC / IP / K / LDH / Na / PL / RALB / TBIL / TC / TG / TP / gamma-GTP: tissue Plasma

C=CCO [ALLYL ALCOHOL]
TERMINAL_BW (3 h): 223.5 g
APTT (3 h): 18.8 s
Bas (3 h): 0%
Eos (3 h): 1%
Fbg (3 h): 234.6 mg/dL
Hb (3 h): 13.8 g/dL
Ht (3 h): 38.7%
Lym (3 h): 76%
MCH (3 h): 21.7 pg
MCHC (3 h): 35.6%
MCV (3 h): 60.9 fL
Mono (3 h): 3.2%
Neu (3 h): 19.8%
PT (3 h): 11.8 s
Plat (3 h): 126.8 x10_4/uL
RBC (3 h): 635.2 x10_4/ul
Ret (3 h): 6.4%
WBC (3 h): 81.6 x10_2/uL
KIDNEY_L (3 h): 1 g
KIDNEY_R (3 h): 1 g
KIDNEY_TOTAL (3 h): 2 g
LIVER (3 h): 10.2 g
A/G (3 h): 1.6
ALP (3 h): 1094.8 IU/L
ALT (3 h): 37.4 IU/L
AST (3 h): 67.6 IU/L
BUN (3 h): 11.4 mg/dL
CRE (3 h): 0.4 mg/dL
Ca (3 h): 11.2 mg/dL
Cl (3 h): 100.6 meq/L
DBIL (3 h): 0.5 mg/dL
GLC (3 h): 195.2 mg/dL
IP (3 h): 8.6 mg/dL
K (3 h): 3.7 meq/L
LDH (3 h): 235.4 IU/L
Na (3 h): 139.8 meq/L
PL (3 h): 181 mg/dL
RALB (3 h): 3.5 g/dL
TBIL (3 h): 0.6 mg/dL
TC (3 h): 81 mg/dL
TG (3 h): 262 mg/dL
TP (3 h): 5.7 g/dL
gamma-GTP (3 h): 0.6 IU/L
TERMINAL_BW (6 h): 220.1 g
APTT (6 h): 19 s
Bas (6 h): 0%
Eos (6 h): 1%
Fbg (6 h): 220.8 mg/dL
Hb (6 h): 13.2 g/dL
Ht (6 h): 38.3%
Lym (6 h): 76%
MCH (6 h): 21 pg
MCHC (6 h): 34.3%
MCV (6 h): 61 fL
Mono (6 h): 3.8%
Neu (6 h): 18.8%
PT (6 h): 12.2 s
Plat (6 h): 122.5 x10_4/uL
RBC (6 h): 627.4 x10_4/ul
Ret (6 h): 7.1%
WBC (6 h): 102.5 x10_2/uL
KIDNEY_L (6 h): 0.9 g
KIDNEY_R (6 h): 1 g
KIDNEY_TOTAL (6 h): 1.9 g
LIVER (6 h): 9.4 g
A/G (6 h): 1.6
ALP (6 h): 1095 IU/L
ALT (6 h): 33 IU/L
AST (6 h): 70.6 IU/L
BUN (6 h): 7.8 mg/dL
CRE (6 h): 0.4 mg/dL
Ca (6 h): 10.7 mg/dL
Cl (6 h): 102.8 meq/L
DBIL (6 h): 0.1 mg/dL
GLC (6 h): 192.4 mg/dL
IP (6 h): 8.7 mg/dL
K (6 h): 3.9 meq/L
LDH (6 h): 222.4 IU/L
Na (6 h): 141.2 meq/L
PL (6 h): 149.6 mg/dL
RALB (6 h): 3.4 g/dL
TBIL (6 h): 0.2 mg/dL
TC (6 h): 76.4 mg/dL
TG (6 h): 77.8 mg/dL
TP (6 h): 5.5 g/dL
gamma-GTP (6 h): 1 IU/L
TERMINAL_BW (9 h): 215.7 g
APTT (9 h): 18.7 s
Bas (9 h): 0%
Eos (9 h): 1.2%
Fbg (9 h): 221.8 mg/dL
Hb (9 h): 13.4 g/dL
Ht (9 h): 39.1%
Lym (9 h): 75.8%
MCH (9 h): 20.9 pg
MCHC (9 h): 34.3%
MCV (9 h): 61 fL
Mono (9 h): 3.2%
Neu (9 h): 20.2%
PT (9 h): 12.2 s
Plat (9 h): 124 x10_4/uL
RBC (9 h): 640.4 x10_4/ul
Ret (9 h): 6.9%
WBC (9 h): 65 x10_2/uL
KIDNEY_L (9 h): 1 g
KIDNEY_R (9 h): 1 g
KIDNEY_TOTAL (9 h): 2 g
LIVER (9 h): 9.1 g
A/G (9 h): 1.5
ALP (9 h): 994.6 IU/L
ALT (9 h): 27.6 IU/L
AST (9 h): 59.2 IU/L
BUN (9 h): 9.6 mg/dL
CRE (9 h): 0.3 mg/dL
Ca (9 h): 10.5 mg/dL
Cl (9 h): 101.8 meq/L
DBIL (9 h): 0.08 mg/dL
GLC (9 h): 210.2 mg/dL
IP (9 h): 10.7 mg/dL
K (9 h): 3.8 meq/L
LDH (9 h): 169.2 IU/L
Na (9 h): 140.8 meq/L
PL (9 h): 143 mg/dL
RALB (9 h): 3.3 g/dL
TBIL (9 h): 0.1 mg/dL
TC (9 h): 71.8 mg/dL
TG (9 h): 62 mg/dL
TP (9 h): 5.5 g/dL
gamma-GTP (9 h): 0.8 IU/L
TERMINAL_BW (24 h): 232.9 g
APTT (24 h): 20.4 s
Bas (24 h): 0%
Eos (24 h): 1%
Fbg (24 h): 230 mg/dL
Hb (24 h): 13.6 g/dL
Ht (24 h): 39.9%
Lym (24 h): 78.8%
MCH (24 h): 20.5 pg
MCHC (24 h): 34%
MCV (24 h): 60.4 fL
Mono (24 h): 3.4%
Neu (24 h): 16.4%
PT (24 h): 11.7 s
Plat (24 h): 127.6 x10_4/uL
RBC (24 h): 660.4 x10_4/ul
Ret (24 h): 6.2%
WBC (24 h): 97.6 x10_2/uL
KIDNEY_L (24 h): 1 g
KIDNEY_R (24 h): 1 g
KIDNEY_TOTAL (24 h): 2 g
LIVER (24 h): 11.2 g
A/G (24 h): 1.5
ALP (24 h): 863.4 IU/L
ALT (24 h): 35 IU/L
AST (24 h): 64.4 IU/L
BUN (24 h): 16 mg/dL
CRE (24 h): 0.4 mg/dL
Ca (24 h): 10.9 mg/dL
Cl (24 h): 101.8 meq/L
DBIL (24 h): 0.098 mg/dL
GLC (24 h): 202.8 mg/dL
IP (24 h): 7.2 mg/dL
K (24 h): 4 meq/L
LDH (24 h): 204.6 IU/L
Na (24 h): 141 meq/L
PL (24 h): 154.4 mg/dL
RALB (24 h): 3.4 g/dL
TBIL (24 h): 0.2 mg/dL
TC (24 h): 77 mg/dL
TG (24 h): 118.2 mg/dL
TP (24 h): 5.6 g/dL
gamma-GTP (24 h): 0.8 IU/L
